This note sets out measurements from patent US7592366B2, “Therapeutic compounds” (Allergan, Inc., priority 2006, dated 2009).

One data set concerns the target T1, hEP2/Gqs5 (Homo sapiens, UniProt P43116).
T1 construct: expressed in transfected cells; host or cells: HEK-293(EBNA)
Kind of data set: FLIPR calcium signal, EP2. Conditions: HEK-293(EBNA) cells. The class given is cell-based. The protocol: (§1) HEK-293(EBNA) cells, stably expressing one type or subtype of recombinant human prostaglandin receptors (prostaglandin receptors expressed: hDP/Gqs5; hEP1; hEP2/Gqs5; hEP3A/Gqi5; hEP4/Gqs5; hFP; hIP; hTP), were cultured in 100 mm culture dishes in high-glucose DMEM medium containing 10% fetal bovine serum, 2 mM l-glutamine, 250 μg/ml geneticin (G418) and 200 μg/ml hygromycin B as selection markers, and 100 units/ml penicillin G, 100 μg/ml streptomycin and 0.25 μg/ml amphotericin B.
(§2) Cells were seeded at a density of 5×10^4 cells per well in Biocoat® Poly-D-lysine-coated black-wall, clear-bottom 96-well plates (Becton-Dickinson) and allowed to attach overnight in an incubator at 37° C. Cells were then washed two times with HBSS-HEPES buffer (Hanks Balanced Salt Solution without bicarbonate and phenol red, 20 mM HEPES, pH 7.4) using a Denley Cellwash plate washer (Labsystems). After 45 minutes of dye-loading in the dark, using the calcium-sensitive dye Fluo-4 […] at a final concentration of 2 μM, plates were washed four times with HBSS-HEPES buffer to remove excess dye leaving 100 μl in each well. Plates were re-equilibrated to 37° C. for a few minutes.
(§3) Cells were excited with an Argon laser at 488 nm, and emission was measured through a 510-570 nm bandwidth emission filter (FLIPR™, Molecular Devices, Sunnyvale, Calif.). Drug solution was added in a 50 μl volume to each well to give the desired final concentration. The peak increase in fluorescence intensity was recorded for each well. On each plate, four wells each served as negative (HBSS-HEPES buffer) and positive controls (standard agonists: BW245C (hDP); PGE2 (hEP1; hEP2/Gqs5; hEP3A/Gqi5; hEP4/Gqs5); PGF2α (hFP); carbacyclin (hIP); U-46619 (hTP), depending on receptor). The peak fluorescence change in each drug-containing well was then expressed relative to the controls.
(§4) Compounds were tested in a high-throughput (HTS) or concentration-response (CoRe) format. In the HTS format, forty-four compounds per plate were examined in duplicates at a concentration of 10^−5 M. To generate concentration-response curves, four compounds per plate were tested in duplicates in a concentration range between 10^−5 and 10^−11 M. The duplicate values were averaged. In either, HTS or CoRe format each compound was tested on at least 3 separate plates using cells from different passages to give an n≧3.

Another data set addresses T2, hEP4/Gqs5 (Homo sapiens, UniProt P35408).
T2 construct: expressed in transfected cells; host or cells: HEK-293(EBNA)
The experiment in a line: FLIPR calcium signal, EP4. The format is cell-based. Conditions: HEK-293(EBNA) cells. As for the experimental part: as §1, §2, §3, §4

In a further data set the target is T3, EP4 receptors (Homo sapiens, UniProt P35408).
T3 construct: expressed in transfected cells; host or cells: HEK-293
T3 sequence (P35408 whole entry): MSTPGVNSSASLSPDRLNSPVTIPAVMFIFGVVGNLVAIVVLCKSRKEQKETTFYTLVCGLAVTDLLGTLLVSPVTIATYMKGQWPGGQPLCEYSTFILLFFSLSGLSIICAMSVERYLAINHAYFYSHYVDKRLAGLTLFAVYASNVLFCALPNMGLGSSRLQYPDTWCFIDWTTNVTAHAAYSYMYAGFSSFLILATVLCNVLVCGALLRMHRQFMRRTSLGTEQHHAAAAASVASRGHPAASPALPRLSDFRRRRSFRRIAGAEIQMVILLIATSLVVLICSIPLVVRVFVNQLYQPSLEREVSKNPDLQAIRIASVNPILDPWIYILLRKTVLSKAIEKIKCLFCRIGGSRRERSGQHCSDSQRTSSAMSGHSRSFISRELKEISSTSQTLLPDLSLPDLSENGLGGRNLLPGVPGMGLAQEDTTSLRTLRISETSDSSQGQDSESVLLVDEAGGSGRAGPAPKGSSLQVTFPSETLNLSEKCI
The experiment in a line: Radioligand binding [3H]PGE2, EP4 Ki. Conditions: [3H]PGE2 competition, HEK-293 cells expressing EP4. As for the experimental part:
(§5) HEK-293 cells stably expressing the human or feline FP receptor, or EP1, EP2, or EP4 receptors were washed with TME buffer, scraped from the bottom of the flasks, and homogenized for 30 sec using a Brinkman PT 10/35 polytron. TME buffer was added to achieve a final 40 ml volume in the centrifuge tubes (the composition of TME is 100 mM TRIS base, 20 mM MgCl2, […]; 10N HCl is added to achieve a pH of 7.4).
(§6) The cell homogenate was centrifuged at 19000 r.p.m. for 20 min at 4° C. using a Beckman Ti-60 rotor. The resultant pellet was resuspended in TME buffer to give a final 1 mg/ml protein concentration, as determined by Biorad assay. Radioligand binding competition assays vs. [^3H-]17-phenyl PGF2α (5 nM) were performed in a 100 μl volume for 60 min. Binding reactions were started by adding plasma membrane fraction. The reaction was terminated by the addition of 4 ml ice-cold TRIS-HCl buffer and rapid filtration through glass fiber GF/B filters using a Brandel cell harvester. The filters were washed 3 times with ice-cold buffer and oven dried for one hour.
(§7) [^3H-] PGE2 (specific activity 180 Ci mmol) was used as the radioligand for EP receptors. [^3H] 17-phenyl PGF2α was employed for FP receptor binding studies. Binding studies employing EP1, EP2, EP4 and FP receptors were performed in duplicate in at least three separate experiments. A 200 μl assay volume was used. Incubations were for 60 min at 25° C. and were terminated by the addition of 4 ml of ice-cold 50 mM TRIS-HCl, followed by rapid filtration through Whatman GF/B filters and three additional 4 ml washes in a cell harvester (Brandel). Competition studies were performed using a final concentration of 5 nM [^3H]-PGE2, or 5 nM [^3H] 17-phenyl PGF2α and non-specific binding determined with 10^−5M of unlabeled PGE2, or 17-phenyl PGF2α, according to receptor subtype studied.

A further data set addresses T4, hTP (Homo sapiens, UniProt P21731).
T4 construct: expressed in transfected cells; host or cells: HEK-293(EBNA)
T4 sequence (P21731 1-343): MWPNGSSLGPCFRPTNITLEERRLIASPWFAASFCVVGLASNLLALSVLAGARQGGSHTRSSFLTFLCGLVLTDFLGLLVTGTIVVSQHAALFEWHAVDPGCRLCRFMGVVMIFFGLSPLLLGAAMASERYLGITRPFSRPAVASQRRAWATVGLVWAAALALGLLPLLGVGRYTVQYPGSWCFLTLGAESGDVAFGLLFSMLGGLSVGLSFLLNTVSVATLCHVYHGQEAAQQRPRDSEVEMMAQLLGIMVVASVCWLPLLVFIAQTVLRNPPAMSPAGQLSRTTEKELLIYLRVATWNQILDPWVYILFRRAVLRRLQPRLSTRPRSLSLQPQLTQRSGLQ
The experiment in a line: FLIPR calcium signal, hTP. The class given is cell-based. Particulars: read-out: Other Receptors (EC50 in nM) hTP. As for the experimental part: as §1, §2, §3
Compounds were tested in a high-throughput (HTS) or concentration-response (CoRe) format. […]

Another data set has as its system normotensive dogs. Kind of data set: Intraocular pressure and ocular surface hyperemia in normotensive dogs. The arrangement: scale not given here. The class given is in vivo, dog. From the text:
U.S. Pat. No. 7,091,231 describes the methods used for these in vivo tests.

Data set [1] concerns the target T5, EP2 (Homo sapiens, UniProt P43116). The experiment in a line: Competition binding [3H]PGE2, EP2 Ki. The arrangement: expressed in transfected cells; host or cells: HEK 293. Particulars: [3H]PGE2 competition, HEK 293 cells expressing human EP2. The protocol:
Competition binding experiments were performed in a medium containing Hank's balanced salt solution, Hepes 20 mM, pH 7.3, membranes (˜60 μg protein) or 2×10^5 cells from HEK 293 cells stably expressing human EP2 receptors, [^3H]PGE2 (10 nM) and various concentrations of test compounds in a total volume of 300 μl. Reaction mixtures were incubated at 23° C. for 60 min, and were filtered over Whatman GF/B filters under vacuum. Filters were washed three times with 5 ml ice-cold buffer containing 50 mM Tris/HCl (pH 7.3). Non-specific binding was estimated in the presence of excess unlabeled PGE2 (10 μM). Binding data fitted to the binding model for a single class of binding sites, using nonlinear regression analysis. IC50 values thus obtained were converted to Ki using the equation of Ki=(IC50/(1+[L]/KD) where [L] represents PGE2 concentration (10 nM) and KD the dissociation constant for [^3H]PGE2 at human EP2 receptors (40 nM).
as §5, §6, §7

Data set [2] deals with T5, EP2. Kind of data set: cAMP assay, EP2. The class given is cell-based. Particulars: HEK-EBNA cells expressing EP2. Details: expressed in transfected cells; host or cells: HEK-EBNA. The protocol: A 384-well drug plate was prepared to contain 6 test compounds, PGE2 and cAMP in 16 serial dilutions in triplicate, using a Biomek station. HEK-EBNA cells expressing a target PG receptor subtype (EP2 or EP4) were suspended in a stimulation buffer (HBSS, 0.1% BSA, 0.5 mM IBMX and 5 mM HEPES, pH 7.4) in a density of 10^4 cells/5 μl. The reaction was initiated by mixing 5 μL drug dilutions with 5 μl of HEK-EBNA cells in a well, carried out for 30 min at room temperature, and followed by the addition of 5 μl anti-cAMP acceptor beads in the control buffer with Tween-20 (25 mM NaCl, 0.03% Tween-20, 5 mM HEPES, pH7.4). After 30 min in the dark at room temperature, the mixtures were incubated with 15 μl biotinylated-cAMP/strepavidin donor beads in Lysis/Detection buffer (0.1% BSA, 0.3% Tween-20 and 5 mM HEPES, pH7.4) for 45 min at the room temperature. Fluorescence changes were read using a Fusion-alpha HT microplate reader.

Another data set concerns the target T6, hDP/Gqs5 (Homo sapiens, UniProt Q13258).
T6 construct: expressed in transfected cells; host or cells: HEK-293(EBNA)
T6 sequence (Q13258 1-359): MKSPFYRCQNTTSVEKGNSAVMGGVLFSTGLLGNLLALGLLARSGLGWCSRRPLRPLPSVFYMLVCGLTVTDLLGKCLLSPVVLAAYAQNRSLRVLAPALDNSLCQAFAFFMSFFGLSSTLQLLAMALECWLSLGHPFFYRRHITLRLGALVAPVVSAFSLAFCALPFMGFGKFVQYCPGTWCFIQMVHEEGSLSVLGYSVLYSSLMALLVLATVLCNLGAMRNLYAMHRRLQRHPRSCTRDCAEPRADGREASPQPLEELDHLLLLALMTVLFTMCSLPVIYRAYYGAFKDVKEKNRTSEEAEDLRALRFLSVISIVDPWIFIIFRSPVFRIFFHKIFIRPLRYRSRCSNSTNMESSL
The experiment in a line: FLIPR calcium signal, hDP. The class given is cell-based. Particulars: read-out: Other Receptors (EC50 in nM) hDP. As for the experimental part:
as §1, §2, §3, §4

[3] abbreviates: 0.001%, once daily for 5 days, at 50 h.

Where only a bound is given, the exact number is not on record here.

T2 sequence (P35408 whole entry): as the sequence (P35408 whole entry) above
T5 sequence (P43116 whole entry): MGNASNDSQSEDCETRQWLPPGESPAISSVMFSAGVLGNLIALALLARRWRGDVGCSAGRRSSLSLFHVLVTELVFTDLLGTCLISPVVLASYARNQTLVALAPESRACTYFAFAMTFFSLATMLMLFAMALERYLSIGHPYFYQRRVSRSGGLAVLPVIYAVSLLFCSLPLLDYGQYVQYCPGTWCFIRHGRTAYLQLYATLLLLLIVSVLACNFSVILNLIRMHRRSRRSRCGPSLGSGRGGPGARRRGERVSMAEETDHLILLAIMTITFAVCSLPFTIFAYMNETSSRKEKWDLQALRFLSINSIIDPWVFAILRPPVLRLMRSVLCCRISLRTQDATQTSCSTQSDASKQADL
T1 sequence (P43116 whole entry): as above

As to `O=C(O)c1ccc(CCC[C@@H]2[C@@H](CCc3cc(Cl)cc(Cl)c3)[C@H](O)C[C@H]2Cl)s1` [11a, 5-(3-((1R,2R,3R,5R)-5-chloro-2-(3,5-dichlorophenethyl)-3-hydroxycyclopentyl)propyl)thiophene-2-carboxylic acid], the EC50 at hEP2/Gqs5 was 18 nM; on hEP4/Gqs5, above 10000 nM; on hTP, above 10000 nM; on EP2 [2], 0.09 nM. For the same compound, the values for the Ki at EP4 receptors and at EP2 [1] were 616 nM and 0.2 nM, respectively. Further, the “maximum ocular surface hyperemia (OSH) score” value in the data set with normotensive dogs (0.0001%, once daily for 5 days, at 74 h) turned out to be 0.8; with normotensive dogs (0.0005%, once daily for 5 days, at 50 h) it was 1.75; in the data set on normotensive dogs (setting [3]) it was 1.8; in the data set on normotensive dogs (0.01%, once daily for 5 days, at 26 h), 2.5.

Consider `O=C(O)c1ccc(CCC[C@@H]2[C@@H](CCc3cc(Cl)nc(Cl)c3)[C@H](O)C[C@H]2Cl)s1` [11b, 5-(3-((1R,2R,3R,5R)-5-chloro-2-(2-(2,6-dichloropyridin-4-yl)ethyl)-3-hydroxycyclopentyl)propyl)-thiophene-2-carboxylic acid], for which the EC50 on hEP2/Gqs5 is 13 nM; on hEP4/Gqs5, above 10000 nM; at EP2 [2] it was 0.05 nM. The Ki was 582 nM at EP4 receptors and 1 nM on EP2 [1]. Further, in the data set with normotensive dogs (0.001%, once daily for 4 days, at 74 h), the “maximum ocular surface hyperemia (OSH) score” value came out at 1.9.

As to `O=C(O)c1ccc(CCC[C@@H]2[C@@H](CCc3cc(Cl)cc(CO)c3)[C@H](O)C[C@H]2Cl)s1` [11c, 5-(3-((1R,2R,3R,5R)-5-chloro-2-(3-chloro-5-(hydroxymethyl)phenethyl)-3-hydroxycyclopentyl)propyl)thiophene-2-carboxylic acid], the EC50 on hEP2/Gqs5 is 86 nM; at hEP4/Gqs5, above 10000 nM; on hDP/Gqs5 it was 2940 nM; at EP2 [2], 0.08 nM. In addition, the Ki turned out to be 437 nM on EP4 receptors and 1 nM on EP2 [1]. Besides, the “maximum ocular surface hyperemia (OSH) score” value with normotensive dogs (setting [3]) turned out to be 0.8.

For `Cc1cc(C)cc(CC[C@@H]2[C@@H](CCCc3ccc(C(=O)O)s3)[C@H](Cl)C[C@H]2O)c1` [11e, 5-(3-((1R,2R,3R,5R)-5-chloro-2-(3,5-dimethylphenethyl)-3-hydroxycyclopentyl)propyl)thiophene-2-carboxylic acid], the EC50 at hEP2/Gqs5 is 287 nM; on hEP4/Gqs5 it was above 10000 nM; at hDP/Gqs5 it was 15300 nM; on EP2 [2] it was 0.4 nM. The Ki at EP4 receptors was 966 nM; on EP2 [1], 3 nM.

Regarding `OCc1ccc(CCC[C@@H]2[C@@H](CCc3cc(Cl)cc(Cl)c3)[C@H](O)C[C@H]2Cl)s1` [compound 13, (1R,2R,3R,4R)-4-chloro-2-(3,5-dichlorophenethyl)-3-(3-(5-(hydroxymethyl)thiophen-2-yl)propyl)cyclopentanol], the EC50 at hEP2/Gqs5 was 10200 nM; at EP2 [2], 284 nM. In addition, the Ki was above 10000 nM on EP4 receptors and 502 nM at EP2 [1].

Take `CC(C)OC(=O)c1ccc(CCC[C@@H]2[C@@H](CCc3cc(Cl)cc(CO)c3)[C@H](O)C[C@H]2Cl)s1` [compound 18, Isopropyl 5-(3-((1R,2R,3R,5R)-5-chloro-2-(3-chloro-5-(hydroxymethyl)phenethyl)-3-hydroxycyclopentyl)propyl)thiophene-2-carboxylate]: the “maximum ocular surface hyperemia (OSH) score” value with normotensive dogs (0.001%, once daily for 5 days, at 26 h) is 0.9.
